In general, IC50 refers to the concentration at which inhibition is half-maximal.

The target in experiment [1] is GST-tagged truncated LRRK2 (Homo sapiens (Human), UniProt Q5S007). Put plainly: LRRK2 Lantha Screen kinase assay. The experiment is classed as biochemical. Particulars: geometric mean of 2-5 determinations unless otherwise indicated (a: >=6 determinations; b: single determination); read-out: LRRK2 WT IC50.
Another experiment deals with mutant G2019S LRRK2 (Homo sapiens (Human), UniProt Q5S007, G2019S). In words: LRRK2 Lantha Screen kinase assay, mutant enzyme. The experiment is classed as biochemical. Particulars: geometric mean of 2-5 determinations unless otherwise indicated (a: >=6 determinations; b: single determination).
Sequence of mutant G2019S LRRK2 (Q5S007 970-2527 G2019S): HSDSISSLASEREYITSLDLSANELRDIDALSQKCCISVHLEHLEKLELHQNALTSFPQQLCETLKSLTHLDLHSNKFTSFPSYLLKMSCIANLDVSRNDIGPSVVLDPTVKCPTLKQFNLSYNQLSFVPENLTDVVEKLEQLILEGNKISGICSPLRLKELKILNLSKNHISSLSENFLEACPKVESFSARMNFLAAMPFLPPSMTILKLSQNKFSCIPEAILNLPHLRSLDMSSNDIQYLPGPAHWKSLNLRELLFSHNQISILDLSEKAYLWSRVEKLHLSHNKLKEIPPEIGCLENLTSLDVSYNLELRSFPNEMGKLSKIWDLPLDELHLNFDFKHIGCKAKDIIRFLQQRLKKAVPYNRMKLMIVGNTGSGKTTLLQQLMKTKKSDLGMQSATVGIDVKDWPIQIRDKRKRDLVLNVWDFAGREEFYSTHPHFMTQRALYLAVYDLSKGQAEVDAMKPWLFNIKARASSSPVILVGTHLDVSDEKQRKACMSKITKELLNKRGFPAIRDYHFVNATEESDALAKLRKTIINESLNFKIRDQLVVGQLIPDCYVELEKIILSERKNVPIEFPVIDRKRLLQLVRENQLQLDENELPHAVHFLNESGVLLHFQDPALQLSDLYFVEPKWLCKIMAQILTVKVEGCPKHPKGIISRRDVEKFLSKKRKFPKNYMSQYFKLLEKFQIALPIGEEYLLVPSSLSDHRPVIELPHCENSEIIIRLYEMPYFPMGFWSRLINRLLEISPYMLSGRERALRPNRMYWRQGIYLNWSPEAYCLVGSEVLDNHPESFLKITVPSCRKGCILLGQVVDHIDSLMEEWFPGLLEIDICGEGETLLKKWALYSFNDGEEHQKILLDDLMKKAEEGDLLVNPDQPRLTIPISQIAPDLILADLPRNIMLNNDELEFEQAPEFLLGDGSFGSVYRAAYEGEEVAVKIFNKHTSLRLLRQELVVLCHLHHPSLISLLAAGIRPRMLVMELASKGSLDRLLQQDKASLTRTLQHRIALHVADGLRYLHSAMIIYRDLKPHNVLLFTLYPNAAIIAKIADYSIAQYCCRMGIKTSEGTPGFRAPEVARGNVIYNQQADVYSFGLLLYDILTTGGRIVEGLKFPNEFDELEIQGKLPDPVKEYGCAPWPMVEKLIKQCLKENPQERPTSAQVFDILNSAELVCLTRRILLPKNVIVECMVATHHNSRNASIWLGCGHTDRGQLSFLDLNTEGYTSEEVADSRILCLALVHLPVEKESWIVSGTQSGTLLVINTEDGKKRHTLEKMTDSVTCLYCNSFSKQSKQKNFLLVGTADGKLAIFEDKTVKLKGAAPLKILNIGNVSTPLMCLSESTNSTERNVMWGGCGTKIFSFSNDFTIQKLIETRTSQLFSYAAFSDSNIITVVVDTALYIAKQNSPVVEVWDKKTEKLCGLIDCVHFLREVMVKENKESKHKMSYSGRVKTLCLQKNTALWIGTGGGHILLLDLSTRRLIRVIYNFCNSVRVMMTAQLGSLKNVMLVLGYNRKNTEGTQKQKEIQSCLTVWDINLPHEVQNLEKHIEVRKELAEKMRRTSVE

Sequence of GST-tagged truncated LRRK2 (Q5S007 970-2527): as the sequence (Q5S007 970-2527 G2019S) above, with S1050G counted along it

In the case of `COc1ccc(C#N)cc1-c1c[nH]c2ncnc(N3C[C@H](C)C[C@H](C)C3)c12` [Example 65, 3-[4-(3,5-cis-dimethylpiperidin-1-yl)-7H-pyrrolo[2,3-d]pyrimidin-5-yl]-4-methoxybenzonitrile], the IC50 turned out to be 85 nM in experiment [1] and 176 nM against mutant G2019S LRRK2.

Regarding `COc1ccc(C#N)cc1-c1c[nH]c2ncnc(N3CCC[C@H](C)C3)c12` [Example 66, 4-methoxy-3-{4-[(3S)-3-methylpiperidin-1-yl]-7H-pyrrolo[2,3-d]pyrimidin-5-yl}benzonitrile], the IC50 came to 21 nM in experiment [1] and 51 nM at mutant G2019S LRRK2.

With `C[C@H]1CCCN(c2ncnc3[nH]cc(-c4cccc(C#N)c4F)c23)C1` [Example 67, 2-fluoro-3-{4-[(3S)-3-methylpiperidin-1-yl]-7H-pyrrolo[2,3-d]pyrimidin-5-yl}benzonitrile], the IC50 in experiment [1] amounted to 11 nM; against mutant G2019S LRRK2, 35 nM.

As for `CN(C)c1ncnc2[nH]cc(-c3ccccc3)c12` [Example 68, N,N-dimethyl-5-phenyl-7H-pyrrolo[2,3-d]pyrimidin-4-amine], the IC50 was determined as 63 nM in experiment [1] and 39 nM against mutant G2019S LRRK2.

Take `CN(C)c1ncnc2[nH]cc(-c3cccc(C#N)c3F)c12` [Example 69, 3-[4-(dimethylamino)-7H-pyrrolo[2,3-d]pyrimidin-5-yl]-2-fluorobenzonitrile]: the figures for the IC50 (in experiment [1]; against mutant G2019S LRRK2) were 6 nM and 17 nM, respectively.

Regarding `N#Cc1cccc(-c2c[nH]c3ncnc(N4CCCC4)c23)c1` [Example 70, 3-[4-(pyrrolidin-1-yl)-7H-pyrrolo[2,3-d]pyrimidin-5-yl]benzonitrile], the IC50 was 8 nM in experiment [1] and 64 nM against mutant G2019S LRRK2.

Turning to `CN(C)c1ncnc2[nH]cc(-c3cc(C#N)ccc3F)c12` [Example 72, 3-[4-(dimethylamino)-7H-pyrrolo[2,3-d]pyrimidin-5-yl]-4-fluorobenzonitrile], the half-inhibitory concentration (IC50) was 37 nM in experiment [1] and 190 nM at mutant G2019S LRRK2.

Consider `CCN(CC)c1ncnc2[nH]cc(-c3cccc(C#N)c3)c12` [Example 73, 3-[4-(diethylamino)-7H-pyrrolo[2,3-d]pyrimidin-5-yl]benzonitrile], for which the IC50 is 13 nM in experiment [1] and 119 nM on mutant G2019S LRRK2.

For the molecule `CN(C)c1ncnc2[nH]cc(-c3cc(F)cc(C#N)c3)c12` [Example 75, 3-[4-(dimethylamino)-7H-pyrrolo[2,3-d]pyrimidin-5-yl]-5-fluorobenzonitrile], the IC50 in experiment [1] came out at 53 nM; on mutant G2019S LRRK2, 396 nM.

With `N#Cc1cccc(-c2c[nH]c3ncnc(N4CCOCC4)c23)c1F` [Example 78, 2-fluoro-3-[4-(morpholin-4-yl)-7H-pyrrolo[2,3-d]pyrimidin-5-yl]benzonitrile], the concentration for half-maximal inhibition (IC50) worked out at 2 nM in experiment [1] and 7 nM against mutant G2019S LRRK2.

For `C[C@@H]1CN(c2ncnc3[nH]cc(-c4cccc(C#N)c4)c23)CCO1` [Example 79, 3-{4-[(2R)-2-methylmorpholin-4-yl]-7H-pyrrolo[2,3-d]pyrimidin-5-yl}benzonitrile], the 50% inhibitory concentration (IC50) in experiment [1] turned out to be 18 nM; against mutant G2019S LRRK2, 69 nM.

`N#Cc1ccc(F)c(-c2c[nH]c3ncnc(N4CCOCC4)c23)c1` [Example 80, 4-fluoro-3-[4-(morpholin-4-yl)-7H-pyrrolo[2,3-d]pyrimidin-5-yl]benzonitrile]: the figures for the concentration for half-maximal inhibition (IC50) (in experiment [1]; at mutant G2019S LRRK2) were 49 nM and 393 nM, respectively.

For the molecule `Cn1cc(-c2c[nH]c3ncnc(N4CCC(F)CC4)c23)cn1` [Example 81, 4-(4-fluoropiperidin-1-yl)-5-(1-methyl-1H-pyrazol-4-yl)-7H-pyrrolo[2,3-d]pyrimidine], the IC50 in experiment [1] is 36 nM; against mutant G2019S LRRK2, 50 nM.

Consider `N#Cc1ccccc1-c1c[nH]c2ncnc(N3CCOCC3)c12` [Example 82, 2-[4-(morpholin-4-yl)-7H-pyrrolo[2,3-d]pyrimidin-5-yl]benzonitrile], for which the results for the half-inhibitory concentration (IC50) (in experiment [1]; against mutant G2019S LRRK2) were 95 nM and 148 nM, respectively.

Take `Clc1cccc(-c2c[nH]c3ncnc(N4CCOCC4)c23)c1` [Example 83, 5-(3-chlorophenyl)-4-(morpholin-4-yl)-7H-pyrrolo[2,3-d]pyrimidine]: the concentration for half-maximal inhibition (IC50) in experiment [1] stood at 8 nM; against mutant G2019S LRRK2, 13 nM.

For the molecule `Fc1ccccc1-c1c[nH]c2ncnc(N3CCOCC3)c12` [Example 84, 5-(2-fluorophenyl)-4-(morpholin-4-yl)-7H-pyrrolo[2,3-d]pyrimidine], the half-inhibitory concentration (IC50) in experiment [1] stood at 22 nM; against mutant G2019S LRRK2, 30 nM.

For `COc1cc(F)cc(-c2c[nH]c3ncnc(N4CCOCC4)c23)c1` [Example 85, 5-(3-fluoro-5-methoxyphenyl)-4-(morpholin-4-yl)-7H-pyrrolo[2,3-d]pyrimidine], the concentration for half-maximal inhibition (IC50) in experiment [1] worked out at 9 nM; at mutant G2019S LRRK2, 20 nM.

For `Fc1ccc(F)c(-c2c[nH]c3ncnc(N4CCOCC4)c23)c1` [Example 86, 5-(2,5-difluorophenyl)-4-(morpholin-4-yl)-7H-pyrrolo[2,3-d]pyrimidine], the IC50 in experiment [1] was determined as 76 nM; on mutant G2019S LRRK2 it was 145 nM.

Take `Fc1cccc(-c2c[nH]c3ncnc(N4CCOCC4)c23)c1F` [Example 87, 5-(2,3-difluorophenyl)-4-(morpholin-4-yl)-7H-pyrrolo[2,3-d]pyrimidine]: the 50% inhibitory concentration (IC50) was found to be 12 nM in experiment [1] and 24 nM on mutant G2019S LRRK2.

Take `Fc1ccc(Cl)cc1-c1c[nH]c2ncnc(N3CCOCC3)c12` [Example 88, 5-(5-chloro-2-fluorophenyl)-4-(morpholin-4-yl)-7H-pyrrolo[2,3-d]pyrimidine]: the IC50 in experiment [1] stood at 9 nM; against mutant G2019S LRRK2 it was 12 nM.

On to `OCc1cccc(-c2c[nH]c3ncnc(N4CCOCC4)c23)c1F` [Example 89, {2-fluoro-3-[4-(morpholin-4-yl)-7H-pyrrolo[2,3-d]pyrimidin-5-yl]phenyl}methanol], for which the concentration for half-maximal inhibition (IC50) in experiment [1] is 32 nM; against mutant G2019S LRRK2 it was 75 nM.

With `Fc1ccc(-c2c[nH]c3ncnc(N4CCOCC4)c23)c(F)c1` [Example 90, 5-(2,4-difluorophenyl)-4-(morpholin-4-yl)-7H-pyrrolo[2,3-d]pyrimidine], the 50% inhibitory concentration (IC50) was 41 nM in experiment [1] and 62 nM on mutant G2019S LRRK2.

For `Fc1cccc(-c2c[nH]c3ncnc(N4CCOCC4)c23)c1` [Example 91, 5-(3-fluorophenyl)-4-(morpholin-4-yl)-7H-pyrrolo[2,3-d]pyrimidine], the concentration for half-maximal inhibition (IC50) came to 9 nM in experiment [1] and 21 nM at mutant G2019S LRRK2.

As to `Fc1cc(F)cc(-c2c[nH]c3ncnc(N4CCOCC4)c23)c1` [Example 92, 5-(3,5-difluorophenyl)-4-(morpholin-4-yl)-7H-pyrrolo[2,3-d]pyrimidine], the concentration for half-maximal inhibition (IC50) came to 92 nM in experiment [1] and 238 nM against mutant G2019S LRRK2.

For `c1ccc(-c2c[nH]c3ncnc(N4CCOCC4)c23)cc1` [Example 93, 4-(morpholin-4-yl)-5-phenyl-7H-pyrrolo[2,3-d]pyrimidine], the half-maximal inhibitory concentration (IC50) is 9 nM in experiment [1] and 14 nM against mutant G2019S LRRK2.

Take `COc1ccc(F)cc1-c1c[nH]c2ncnc(N3CCOCC3)c12` [Example 94, 5-(5-fluoro-2-methoxyphenyl)-4-(morpholin-4-yl)-7H-pyrrolo[2,3-d]pyrimidine]: the IC50 in experiment [1] is 7 nM; on mutant G2019S LRRK2, 10 nM.

For `Clc1ccccc1-c1c[nH]c2ncnc(N3CCOCC3)c12` [Example 95, 5-(2-chlorophenyl)-4-(morpholin-4-yl)-7H-pyrrolo[2,3-d]pyrimidine], the results for the IC50 (in experiment [1]; on mutant G2019S LRRK2) were 21 nM and 33 nM, respectively.

On to `Cc1ccc(F)cc1-c1c[nH]c2ncnc(N3CCOCC3)c12` [Example 96, 5-(5-fluoro-2-methylphenyl)-4-(morpholin-4-yl)-7H-pyrrolo[2,3-d]pyrimidine], for which the results for the half-inhibitory concentration (IC50) (in experiment [1]; on mutant G2019S LRRK2) were 91 nM and 223 nM, respectively.

With `COc1cccc(-c2c[nH]c3ncnc(N4CCOCC4)c23)c1` [Example 97, 5-(3-methoxyphenyl)-4-(morpholin-4-yl)-7H-pyrrolo[2,3-d]pyrimidine], the IC50 in experiment [1] is 28 nM; against mutant G2019S LRRK2, 46 nM.

Consider `OCc1cc(-c2c[nH]c3ncnc(N4CCOCC4)c23)ccc1F` [Example 98, {2-fluoro-5-[4-(morpholin-4-yl)-7H-pyrrolo[2,3-d]pyrimidin-5-yl]phenyl}methanol], for which the IC50 was 70 nM in experiment [1] and 135 nM against mutant G2019S LRRK2.

Consider `Fc1ccc(-c2c[nH]c3ncnc(N4CCOCC4)c23)cc1` [Example 99, 5-(4-fluorophenyl)-4-(morpholin-4-yl)-7H-pyrrolo[2,3-d]pyrimidine], for which the half-maximal inhibitory concentration (IC50) was 95 nM in experiment [1] and 154 nM against mutant G2019S LRRK2.

As to `OCc1cccc(-c2c[nH]c3ncnc(N4CCOCC4)c23)c1` [Example 100, {3-[4-(morpholin-4-yl)-7H-pyrrolo[2,3-d]pyrimidin-5-yl]phenyl}methanol], the results for the IC50 (in experiment [1]; against mutant G2019S LRRK2) were 12 nM and 19 nM, respectively.

On to `COc1ccccc1-c1c[nH]c2ncnc(N3CCOCC3)c12` [Example 101, 5-(2-methoxyphenyl)-4-(morpholin-4-yl)-7H-pyrrolo[2,3-d]pyrimidine], for which the IC50 came out at 14 nM in experiment [1] and 23 nM on mutant G2019S LRRK2.

For `CSc1cccc(-c2c[nH]c3ncnc(N4CCOCC4)c23)c1` [Example 102, 5-[3-(methylsulfanyl)phenyl]-4-(morpholin-4-yl)-7H-pyrrolo[2,3-d]pyrimidine], the half-maximal inhibitory concentration (IC50) in experiment [1] stood at 52 nM; against mutant G2019S LRRK2, 78 nM.

For `c1cncc(-c2c[nH]c3ncnc(N4CCOCC4)c23)c1` [Example 103, 4-(morpholin-4-yl)-5-(pyridin-3-yl)-7H-pyrrolo[2,3-d]pyrimidine], the IC50 was found to be 35 nM in experiment [1] and 159 nM on mutant G2019S LRRK2.

Turning to `c1ccc2c(-c3c[nH]c4ncnc(N5CCOCC5)c34)cncc2c1` [Example 104, 4-[4-(morpholin-4-yl)-7H-pyrrolo[2,3-d]pyrimidin-5-yl]isoquinoline], the IC50 was 27 nM in experiment [1] and 51 nM against mutant G2019S LRRK2.

For the molecule `Brc1cncc(-c2c[nH]c3ncnc(N4CCOCC4)c23)c1` [Example 105, 5-(5-bromopyridin-3-yl)-4-(morpholin-4-yl)-7H-pyrrolo[2,3-d]pyrimidine], the results for the 50% inhibitory concentration (IC50) (in experiment [1]; against mutant G2019S LRRK2) were 6 nM and 14 nM, respectively.

These data come from US9156845B2, “4-(substituted amino)-7H-pyrrolo[2,3-d] pyrimidines as LRRK2 inhibitors” (Pfizer Inc., priority 2012, dated 2015).
